Reference: PubChem BioAssay AID248 (DTP/NCI, 2004)
“And” between values parts separate entries of the source, which are not always exact repeats. Identical values can stand only once. Inconclusive results and toxic doses are left out. Rule as the data show it: active = T/C of 150% or more; inactive = T/C below 125%.

System: L1210 leukemia ip in BDF1 mice, survival T/C
Experiment: NCI In Vivo Anticancer Drug Screen. Data for tumor model L1210 Leukemia (intraperitoneal) in B6D2F1 (BDF1) mice
Settings: endpoint: mean survival time, higher = longer survival
Method in brief: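 Transplanted-tumor mice were given test agent; controls received vehicle only. Survival readings from the two groups were divided (treated over control).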

[1] = dose: 100.0 mg/kg/injection, schedule: Q04DX003 (ip), vehicle: saline with Tween-80
[2] = dose: 75.0 mg/kg/injection, schedule: Q01DX001 (ip), vehicle: saline
[3] = dose: 100.0 mg/kg/injection, schedule: Q01DX001 (ip), vehicle: saline
[4] = dose: 200.0 mg/kg/injection, schedule: Q01DX001 (ip), vehicle: saline
[5] = dose: 200.0 mg/kg/injection, schedule: Q04DX003 (ip), vehicle: saline with Tween-80
[6] = dose: 400.0 mg/kg/injection, schedule: Q04DX003 (ip), vehicle: saline with Tween-80

Measured: T/C

CCO/C(=C\C(=O)c1ccccc1)c1ccccc1
inactive: dose: 50.0 mg/kg/injection, schedule: Q01DX009 (ip), vehicle: saline sonified 92 % of control | dose: 100.0 mg/kg/injection, schedule: Q01DX009 (ip), vehicle: saline sonified 95 % of control | dose: 200.0 mg/kg/injection, schedule: Q01DX009 (ip), vehicle: saline sonified 94 % of control

CCOC(=O)C(C)NC(=O)C(CSC(c1ccccc1)(c1ccccc1)c1ccccc1)NC(c1ccccc1)(c1ccccc1)c1ccccc1 (centres undefined)
inactive: dose: 25.0 mg/kg/injection, schedule: Q01DX009 (ip), vehicle: saline 98 % of control | dose: 50.0 mg/kg/injection, schedule: Q01DX009 (ip), vehicle: saline 103 % of control | dose: 100.0 mg/kg/injection, schedule: Q01DX009 (ip), vehicle: saline 92 % of control | dose: 200.0 mg/kg/injection, schedule: Q01DX009 (ip), vehicle: saline 93 % of control | dose: 400.0 mg/kg/injection, schedule: Q01DX009 (ip), vehicle: saline 98 % of control

O=C1OC2(CCN(Cc3ccccc3)CC2)C(=O)N1c1cccc(Cl)c1
inactive: dose: 100.0 mg/kg/injection, schedule: Q01DX001 (ip), vehicle: carboxymethylcellulose (CMC) 92 % of control | dose: 200.0 mg/kg/injection, schedule: Q01DX001 (ip), vehicle: carboxymethylcellulose (CMC) 106 % of control | dose: 400.0 mg/kg/injection, schedule: Q01DX001 (ip), vehicle: carboxymethylcellulose (CMC) 97 % of control

CSc1ncnc2[nH]ncc12
inactive: dose: 25.0 mg/kg/injection, schedule: Q01DX009 (ip), vehicle: saline with Tween-80 108 % of control | dose: 25.0 mg/kg/injection, schedule: Q04DX003 (ip), vehicle: saline with Tween-80 105 % of control | dose: 50.0 mg/kg/injection, schedule: Q01DX009 (ip), vehicle: saline with Tween-80 102 % of control | dose: 50.0 mg/kg/injection, schedule: Q04DX003 (ip), vehicle: saline with Tween-80 103 % of control | [1] 96 % of control and 106 % of control

CCc1ccccc1NC(=S)Nc1ccccc1
inactive: dose: 100.0 mg/kg/injection, schedule: Q04DX002 (ip), vehicle: Klucel (hydroxypropylcellulose) (HPC) 105 % of control | dose: 200.0 mg/kg/injection, schedule: Q04DX002 (ip), vehicle: Klucel (hydroxypropylcellulose) (HPC) 105 % of control | dose: 400.0 mg/kg/injection, schedule: Q04DX002 (ip), vehicle: Klucel (hydroxypropylcellulose) (HPC) 105 % of control

Nc1nc2nc(N=Nc3ccc(S(N)(=O)=O)cc3)[nH]c2c(=O)[nH]1
inactive: dose: 100.0 mg/kg/injection, schedule: Q04DX003 (ip), vehicle: Klucel (hydroxypropylcellulose) (HPC) 96 % of control | dose: 200.0 mg/kg/injection, schedule: Q04DX003 (ip), vehicle: Klucel (hydroxypropylcellulose) (HPC) 93 % of control | dose: 400.0 mg/kg/injection, schedule: Q04DX003 (ip), vehicle: Klucel (hydroxypropylcellulose) (HPC) 99 % of control

CCCC[N+](C)(CCCC)CC(O)c1cc(-c2ccc(Cl)cc2)nc2c(Cl)cc(Cl)cc12 (centres undefined)
inactive: dose: 12.5 mg/kg/injection, schedule: Q04DX003 (ip), vehicle: saline 102 % of control

CCC1=C[C@H]2CN(CCc3c([nH]c4ccccc34)[C@@](C(=O)OC)(c3cc4c(cc3OC)N(C)[C@H]3[C@@](O)(C(=O)NC)[C@H](OC(C)=O)[C@]5(CC)C=CCN6CC[C@]43[C@@H]65)C2)C1
active: dose: 0.25 mg/kg/injection, schedule: Q01DX009 (ip), vehicle: water 157 % of control
inactive: dose: 0.03 mg/kg/injection, schedule: Q01DX009 (ip), vehicle: saline 103 % of control | dose: 0.03 mg/kg/injection, schedule: Q01DX009 (ip), vehicle: water 103 % of control | dose: 0.06 mg/kg/injection, schedule: Q01DX009 (ip), vehicle: saline 114 % of control | dose: 0.06 mg/kg/injection, schedule: Q01DX009 (ip), vehicle: water 115 % of control | dose: 0.12 mg/kg/injection, schedule: Q01DX009 (ip), vehicle: saline 117 % of control | dose: 0.25 mg/kg/injection, schedule: Q01DX009 (ip), vehicle: saline 114 % of control | dose: 1.0 mg/kg/injection, schedule: Q01DX009 (ip), vehicle: saline 120 % of control | dose: 1.0 mg/kg/injection, schedule: Q01DX009 (ip), vehicle: water 118 % of control

Cc1ccccc1N1C(N)=NC(N)=NC1(C)C
inactive: dose: 6.25 mg/kg/injection, schedule: Q01DX009 (ip), vehicle: Klucel (hydroxypropylcellulose) (HPC) 89 % of control | dose: 12.5 mg/kg/injection, schedule: Q01DX009 (ip), vehicle: Klucel (hydroxypropylcellulose) (HPC) 91 % of control | dose: 25.0 mg/kg/injection, schedule: Q01DX009 (ip), vehicle: Klucel (hydroxypropylcellulose) (HPC) 100 % of control | dose: 50.0 mg/kg/injection, schedule: Q01DX009 (ip), vehicle: Klucel (hydroxypropylcellulose) (HPC) 96 % of control | [2] 103 % of control

O=C(CCl)NP(=O)(O)OCc1ccccc1
inactive: dose: 25.0 mg/kg/injection, schedule: Q04DX002 (ip), vehicle: saline 102 % of control | dose: 50.0 mg/kg/injection, schedule: Q04DX002 (ip), vehicle: saline 94 % of control | dose: 100.0 mg/kg/injection, schedule: Q04DX002 (ip), vehicle: saline 91 % of control

N#CCCCN1C(=O)c2ccccc2S1(=O)=O
inactive: dose: 44.0 mg/kg/injection, schedule: Q01DX Z (ip), vehicle: methylcellulose (MC) 98 % of control | dose: 66.0 mg/kg/injection, schedule: Q01DX Z (ip), vehicle: methylcellulose (MC) 120 % of control | dose: 100.0 mg/kg/injection, schedule: Q01DX Z (ip), vehicle: methylcellulose (MC) 98 % of control

O=c1[nH]ccc2n[nH]nc12
inactive: dose: 100.0 mg/kg/injection, schedule: Q01DX001 (ip), vehicle: other 104 % of control | dose: 100.0 mg/kg/injection, schedule: Q04DX003 (ip), vehicle: other 96 % of control | dose: 200.0 mg/kg/injection, schedule: Q01DX001 (ip), vehicle: other 101 % of control | dose: 200.0 mg/kg/injection, schedule: Q04DX003 (ip), vehicle: other 105 % of control | dose: 400.0 mg/kg/injection, schedule: Q01DX001 (ip), vehicle: other 104 % of control | dose: 400.0 mg/kg/injection, schedule: Q04DX003 (ip), vehicle: other 102 % of control

CCCCCCCCOC(=O)C1=NC=NC1=[N+]=[N-]
inactive: dose: 5.0 mg/kg/injection, schedule: Q01DX001 (ip), vehicle: other 107 % of control | dose: 10.0 mg/kg/injection, schedule: Q01DX001 (ip), vehicle: other 110 % of control | dose: 20.0 mg/kg/injection, schedule: Q01DX001 (ip), vehicle: other 104 % of control | dose: 40.0 mg/kg/injection, schedule: Q01DX001 (ip), vehicle: other 101 % of control

CCc1occ(C(=O)N2Cc3cc4ccccc4nc3C2)c1C1SCCS1
inactive: [3] 89 % of control | [4] 92 % of control

CC1CC(Cc2cccc3ccccc23)C(=O)O1 (centres undefined)
inactive: dose: 37.5 mg/kg/injection, schedule: Q01DX009 (ip), vehicle: saline 102 % of control | [2] 97 % of control | dose: 75.0 mg/kg/injection, schedule: Q01DX009 (ip), vehicle: saline 98 % of control | dose: 75.0 mg/kg/injection, schedule: Q04DX003 (ip), vehicle: saline 96 % of control | dose: 150.0 mg/kg/injection, schedule: Q01DX001 (ip), vehicle: saline 97 % of control | dose: 150.0 mg/kg/injection, schedule: Q01DX009 (ip), vehicle: saline 96 % of control | dose: 150.0 mg/kg/injection, schedule: Q04DX003 (ip), vehicle: saline 94 % of control | dose: 300.0 mg/kg/injection, schedule: Q01DX001 (ip), vehicle: saline 98 % of control | dose: 300.0 mg/kg/injection, schedule: Q04DX003 (ip), vehicle: saline 94 % of control

O=C(Nc1ccc(Cl)c(Cl)c1)n1ncc2ccc([N+](=O)[O-])cc21
inactive: [3] 100 % of control | [4] 96 % of control | dose: 400.0 mg/kg/injection, schedule: Q01DX001 (ip), vehicle: saline 100 % of control

CN1CCOC1=Nc1ccc(Cl)cc1
inactive: [1] 94 % of control | [5] 99 % of control | [6] 88 % of control

O=C(O)C(O)(c1ccccc1)C(O)c1ccccc1 (centres undefined)
inactive: dose: 100.0 mg/kg/injection, schedule: Q01DX009 (ip), vehicle: saline with Tween-80 113 % of control | [1] 100 % of control | dose: 200.0 mg/kg/injection, schedule: Q01DX009 (ip), vehicle: saline with Tween-80 97 % of control | [5] 100 % of control | dose: 400.0 mg/kg/injection, schedule: Q01DX009 (ip), vehicle: saline with Tween-80 98 % of control | [6] 95 % of control

O=C(Nc1ccccc1)Nc1ccc([N+](=O)[O-])cc1O
inactive: [1] 103 % of control | [5] 113 % of control | [6] 100 % of control
